Data on 7 molecules can be found in paper PMC11465619 (ACS Omega, 2024).

For assay [1], the target named is T1, electric eel acetylcholinesterase (AChE, Type–VI-S, EC 3.1.1.7) (Electrophorus electricus, UniProt O42275).
T1 construct: purchased Type–VI-S
The assay can be described thus: biochemical. Particulars: for IC50: mean ± SEM of three parallel measurements. As for the experimental part:
(§1) The electric eel acetylcholinesterase (AChE, Type–VI-S, EC 3.1.1.7, 425.84 U/mg) and horse reddish butyrylcholinesterase (BChE, EC 3.1.1.8, 11.4 U/mg) were used to determine the anticholinesterase activity. […] After incubation for 15 min at 25 °C, 20 μL 0.5 mM DTNB (5,50-dithiobis(2-nitrobenzoic acid)) and 20 μL acetylthiocholine iodide (0.71 mM) or butyryl-thiocholine chloride (0.2 mM) were added. Then, the absorbance was measured at 412 nm.
(§2) Lineweaver–Burk plots were drawn from the data obtained as a result of the experimental study.[24]

In assay [2] the target is horse reddish butyrylcholinesterase (BChE, EC 3.1.1.8) (Equus caballus, UniProt P81908). The assay can be described thus: biochemical. Particulars: for IC50: mean ± SEM of three parallel measurements. The method, then: as §1, §2
Chain of horse reddish butyrylcholinesterase (BChE, EC 3.1.1.8) (P81908 whole entry): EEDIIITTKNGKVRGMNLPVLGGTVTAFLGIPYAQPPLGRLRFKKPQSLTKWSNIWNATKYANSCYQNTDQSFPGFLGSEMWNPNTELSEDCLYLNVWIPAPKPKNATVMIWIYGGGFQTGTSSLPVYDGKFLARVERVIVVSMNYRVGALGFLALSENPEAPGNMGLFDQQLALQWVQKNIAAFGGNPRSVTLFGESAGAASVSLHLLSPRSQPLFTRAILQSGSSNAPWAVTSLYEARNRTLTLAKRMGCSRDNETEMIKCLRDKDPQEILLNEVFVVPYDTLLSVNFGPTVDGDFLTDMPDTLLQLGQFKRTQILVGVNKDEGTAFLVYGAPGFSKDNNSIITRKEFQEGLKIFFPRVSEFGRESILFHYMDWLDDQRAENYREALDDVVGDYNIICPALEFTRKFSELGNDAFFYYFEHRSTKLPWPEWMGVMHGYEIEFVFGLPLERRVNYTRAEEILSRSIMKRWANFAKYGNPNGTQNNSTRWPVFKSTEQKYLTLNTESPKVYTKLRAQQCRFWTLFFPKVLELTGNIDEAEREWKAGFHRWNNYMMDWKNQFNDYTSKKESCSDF

T1 sequence (O42275 24-633): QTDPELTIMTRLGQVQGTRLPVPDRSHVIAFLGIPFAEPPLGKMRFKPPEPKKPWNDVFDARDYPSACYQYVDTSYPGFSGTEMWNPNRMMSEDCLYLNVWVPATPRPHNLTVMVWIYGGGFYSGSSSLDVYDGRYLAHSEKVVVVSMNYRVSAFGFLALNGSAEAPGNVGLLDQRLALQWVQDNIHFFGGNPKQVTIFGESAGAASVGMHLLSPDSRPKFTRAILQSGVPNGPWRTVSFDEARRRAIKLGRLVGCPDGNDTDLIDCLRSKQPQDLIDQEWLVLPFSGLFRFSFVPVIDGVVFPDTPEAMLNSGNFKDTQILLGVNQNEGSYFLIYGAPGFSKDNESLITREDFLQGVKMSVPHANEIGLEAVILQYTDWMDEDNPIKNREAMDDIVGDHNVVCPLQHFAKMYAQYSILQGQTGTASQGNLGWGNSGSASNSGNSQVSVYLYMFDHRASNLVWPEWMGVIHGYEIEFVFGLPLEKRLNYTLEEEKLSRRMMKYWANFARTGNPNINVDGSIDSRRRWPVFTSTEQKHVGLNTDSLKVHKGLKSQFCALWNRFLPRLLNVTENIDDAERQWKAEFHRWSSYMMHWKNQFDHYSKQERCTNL

As usually defined, the IC50 is the concentration that inhibits the measured activity by half. Read a high IC50 as lower potency. For the molecule `O=S(=O)(N/N=C/c1ccccc1O)c1cccc(C(F)(F)F)c1` [Compound 3, (E)-N′-(2-Hydroxybenzylidene)-3-(trifluoromethyl)benzenesulfonohydrazide], the IC50 in assay [1] is 104.2 ± 0.56 µM; in assay [2], 119.8 ± 0.17 µM.

Turning to `O=S(=O)(N/N=C/c1ccccc1O)c1ccccc1OC(F)(F)F` [Compound 5, (E)-N′-(2-Hydroxybenzylidene)-2-(trifluoromethoxy)benzenesulfonohydrazide], the values for the IC50 in assay [1] and in assay [2] were 53.1 ± 0.58 µM and 69 ± 1.06 µM, respectively.

In the case of `O=S(=O)(N/N=C/c1ccccc1O)c1ccccc1C(F)(F)F` [Compound 2, (E)-N′-(2-Hydroxybenzylidene)-2-(trifluoromethyl)benzenesulfonohydrazide], the values for the IC50 in assay [1] and in assay [2] were 91.77 ± 0.33 µM and 100.1 ± 0.12 µM, respectively.

Turning to `O=S(=O)(N/N=C/c1ccccc1O)c1ccc(OC(F)(F)F)cc1` [Compound 7, (E)-N′-(2-Hydroxybenzylidene)-4-(trifluoromethoxy)benzenesulfonohydrazide], the “type of inhibition of AChE (Lineweaver–Burk plots)” value in assay [1] was “competitively”. Besides, in assay [1] (compared with galantamine), the “AChE inhibitory activity relative to the standard galantamine” value is on record as “seven times lower”. The Ki is 28.2 ± 2.51 µM in assay [1] (competitive inhibition, read-out: inhibition constant for AChE (Lineweaver–Burk plots)) and 41.7 ± 3.18 µM in assay [2] (competitive inhibition, read-out: inhibition constant for BChE (Lineweaver–Burk plots)). Besides, the IC50 in assay [1] was 29.1 ± 0.94 µM; in assay [2] it was 40.3 ± 0.66 µM. Also, in assay [2], the “type of inhibition of BChE (Lineweaver–Burk plots)” value is “competitively”.

In the case of `O=S(=O)(N/N=C/c1ccccc1O)c1cccc(OC(F)(F)F)c1` [Compound 6, (E)-N′-(2-Hydroxybenzylidene)-3-(trifluoromethoxy)benzenesulfonohydrazide], the IC50 in assay [1] came to 80.3 ± 0.91 µM; in assay [2], 86.4 ± 0.14 µM.

With `O=S(=O)(N/N=C/c1ccccc1O)c1ccc(F)cc1` [Compound 1, (E)-4-Fluoro-N′-(2-hydroxybenzylidene)benzenesulfonohydrazide], the IC50 in assay [1] stood at 117.5 ± 0.38 µM; in assay [2] it was 124.4 ± 0.28 µM.

As to `O=S(=O)(N/N=C/c1ccccc1O)c1ccc(C(F)(F)F)cc1` [Compound 4, (E)-N′-(2-Hydroxybenzylidene)-4-(trifluoromethyl)benzenesulfonohydrazide], the IC50 in assay [1] was 68.67 ± 0.43 µM; in assay [2], 75.34 ± 0.18 µM.
